Data reported in the supplement of paper PMC10627819.

How the values were obtained:
Test in all cases: Bliss interaction score (quartile over a dose matrix) (fitness difference); higher = more antagonism (negative = synergy)
[1] = system: B. subtilis 168
Method in brief: (§1)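 Fitness here means normalised growth, inferred for single drugs from the combination data. Growth was OD595 at entry into stationary phase, divided by the plate's robust no-drug mean and capped at 1. The Bliss score is observed minus expected fitness, with the expectation being the product, and its quartiles span technical, biological and donor/recipient replicates.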

[2] = system: S. pneumoniae D39V
Method in brief: as §1

[3] = system: S. aureus DSM 20231
Method in brief: as §1

[4] = system: S. aureus Newman
Method in brief: as §1
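Further: first quartile when negative (synergy) and third quartile when positive (antagonism).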

CC(=O)Oc1ccccc1C(=O)O [Acetylsalicylicacid] + CC[C@H](C)[C@H](N)C1=N[C@H](C(=O)N[C@@H](CC(C)C)C(=O)N[C@H](CCC(=O)O)C(=O)N[C@H](C(=O)N[C@H]2CCCCNC(=O)[C@H](CC(N)=O)NC(=O)[C@@H](CC(=O)O)NC(=O)[C@H](Cc3cnc[nH]3)NC(=O)[C@@H](Cc3ccccc3)NC(=O)[C@H]([C@@H](C)CC)NC(=O)[C@@H](CCCN)NC2=O)[C@@H](C)CC)CS1 [Bacitracin]
Bliss interaction score ([1]; main component drawn): 0.123
Bliss interaction score ([2]; main component drawn): 0.165
Bliss interaction score ([3]; main component drawn): 0.0276
Bliss interaction score ([4]; main component drawn): -0.0752

CC(=O)Oc1ccccc1C(=O)O [Acetylsalicylicacid] + COc1cc(Cc2cnc(N)nc2N)cc(OC)c1OC [Trimethoprim]
Bliss interaction score [1]: 0.123
Bliss interaction score [2]: -0.163
Bliss interaction score [3]: -0.0672
Bliss interaction score [4]: 0.0981

COc1cccc2c1C(=O)c1c(O)c3c(c(O)c1C2=O)C[C@@](O)(C(=O)CO)C[C@@H]3O[C@H]1C[C@H](N)[C@H](O)[C@H](C)O1 [Doxorubicin] + CC1(C)S[C@@H]2[C@H](NC(=O)Cc3ccccc3)C(=O)N2[C@H]1C(=O)O [PenicillinG]
Bliss interaction score [1]: 0.0777
Bliss interaction score [2]: 0.0966
Bliss interaction score [3]: 0.0914
Bliss interaction score [4]: -0.0818

CC(=O)Oc1ccccc1C(=O)O [Acetylsalicylicacid] + CO/N=C(\C(=O)N[C@@H]1C(=O)N2C(C(=O)[O-])=C(C[N+]3(C)CCCC3)CS[C@H]12)c1csc(N)n1 [Cefepime]
Bliss interaction score [1]: 0.167
Bliss interaction score [2]: 0.118
Bliss interaction score [3]: 0.097
Bliss interaction score [4]: 0.0506

CC(=O)Oc1ccccc1C(=O)O [Acetylsalicylicacid] + O=C(N[C@H](CO)[C@H](O)c1ccc([N+](=O)[O-])cc1)C(Cl)Cl [Chloramphenicol]
Bliss interaction score [1]: 0.0772
Bliss interaction score [2]: 0.115
Bliss interaction score [3]: -0.0904
Bliss interaction score [4]: 0.0794

C[C@@H]1O[C@@H]1P(=O)(O)O [Fosfomycin] + Oc1cc(Cl)ccc1Oc1ccc(Cl)cc1Cl [Triclosan]
Bliss interaction score [1]: -0.0701
Bliss interaction score [2]: 0.0597
Bliss interaction score [3]: 0.0662
Bliss interaction score [4]: 0.0573

C[C@H]1c2cccc(O)c2C(=O)C2=C(O)[C@]3(O)C(=O)C(C(N)=O)=C(O)[C@@H](N(C)C)[C@@H]3[C@@H](O)[C@@H]21 [Doxycycline] + CC[C@H]1OC(=O)[C@H](C)C(=O)[C@H](C)[C@@H](O[C@@H]2O[C@H](C)C[C@H](N(C)C)[C@H]2O)[C@](C)(OC)C[C@@H](C)C(=O)[C@H](C)[C@H]2N(CCCCn3cnc(-c4cccnc4)c3)C(=O)O[C@]12C [Telithromycin]
Bliss interaction score [1]: -0.326
Bliss interaction score [2]: -0.261
Bliss interaction score [3]: -0.0892
Bliss interaction score [4]: -0.0224

N#CC(C#N)=NNc1cccc(Cl)c1 [CCCP] + COc1ccc(C[C@H](N)C(=O)N[C@H]2[C@@H](O)[C@H](n3cnc4c(N(C)C)ncnc43)O[C@@H]2CO)cc1 [Puromycin]
Bliss interaction score [1]: 0.0243
Bliss interaction score [2]: 0.0604
Bliss interaction score [3]: 0.0553
Bliss interaction score [4]: 0.0515

CN(C)[C@@H]1C(O)=C(C(N)=O)C(=O)[C@@]2(O)C(O)=C3C(=O)c4c(O)ccc(Cl)c4[C@@](C)(O)[C@H]3C[C@@H]12 [Clortetracycline] + CN[C@H](CC(C)C)C(=O)N[C@H]1C(=O)N[C@@H](CC(N)=O)C(=O)N[C@H]2C(=O)N[C@H]3C(=O)N[C@H](C(=O)N[C@H](C(=O)O)c4cc(O)cc(O)c4-c4cc3ccc4O)[C@H](O[C@H]3C[C@](C)(N)[C@@H](O)[C@H](C)O3)c3ccc(c(Cl)c3)Oc3cc2cc(c3O[C@@H]2O[C@H](CO)[C@@H](O)[C@H](O)[C@H]2O[C@H]2C[C@](C)(NCc3ccc(-c4ccc(Cl)cc4)cc3)[C@@H](O)[C@H](C)O2)Oc2ccc(cc2Cl)[C@H]1O [Oritavancin]
Bliss interaction score [1]: -0.0243
Bliss interaction score [2]: 0.073
Bliss interaction score [3]: -0.0292
Bliss interaction score [4]: 0.0708

CN(C)[C@@H]1C(O)=C(C(N)=O)C(=O)[C@@]2(O)C(O)=C3C(=O)c4c(O)ccc(Cl)c4[C@@](C)(O)[C@H]3C[C@@H]12 [Clortetracycline] + CC(=O)O[C@H]1C[C@@]2(C)[C@@H](C[C@@H](O)[C@H]3[C@@]4(C)CC[C@@H](O)[C@@H](C)[C@@H]4CC[C@@]32C)/C1=C(\CCC=C(C)C)C(=O)O [Fusidic acid]
Bliss interaction score [1]: -0.11
Bliss interaction score [2]: -0.0508
Bliss interaction score [3]: 0.026
Bliss interaction score [4]: 0.0488

COc1ccc(C[C@H](N)C(=O)N[C@H]2[C@@H](O)[C@H](n3cnc4c(N(C)C)ncnc43)O[C@@H]2CO)cc1 [Puromycin] + CC[C@H]1OC(=O)[C@H](C)C(=O)[C@H](C)[C@@H](O[C@@H]2O[C@H](C)C[C@H](N(C)C)[C@H]2O)[C@](C)(OC)C[C@@H](C)C(=O)[C@H](C)[C@H]2N(CCCCn3cnc(-c4cccnc4)c3)C(=O)O[C@]12C [Telithromycin]
Bliss interaction score [1]: 0.0276
Bliss interaction score [2]: -0.0651
Bliss interaction score [3]: 0.045
Bliss interaction score [4]: -0.0571

O=C(O)c1cn(C2CC2)c2cc(N3CCNCC3)c(F)cc2c1=O [Ciprofloxacin] + CC1(C)S[C@@H]2[C@H](NC(=O)Cc3ccccc3)C(=O)N2[C@H]1C(=O)O [PenicillinG]
Bliss interaction score [1]: 0.0481
Bliss interaction score [2]: 0.0662
Bliss interaction score [3]: -0.0624
Bliss interaction score [4]: -0.0565

CC(=O)Oc1ccccc1C(=O)O [Acetylsalicylicacid] + CCC[C@@H]1C[C@@H](C(=O)N[C@@H]([C@H]2O[C@H](SC)[C@H](O)[C@@H](O)[C@H]2O)[C@H](C)Cl)N(C)C1 [Clindamycin]
Bliss interaction score [1]: 0.0404
Bliss interaction score [2]: -0.105
Bliss interaction score [3]: 0.0574
Bliss interaction score [4]: 0.0829

N#CC(C#N)=NNc1cccc(Cl)c1 [CCCP] + CN(C)[C@@H]1C(O)=C(C(N)=O)C(=O)[C@@]2(O)C(O)=C3C(=O)c4c(O)ccc(Cl)c4[C@@](C)(O)[C@H]3C[C@@H]12 [Clortetracycline]
Bliss interaction score [1]: -0.0685
Bliss interaction score [2]: -0.0306
Bliss interaction score [3]: 0.0445
Bliss interaction score [4]: 0.0865

CC(=O)Oc1ccccc1C(=O)O [Acetylsalicylicacid] + C[C@@H]1O[C@@H]1P(=O)(O)O [Fosfomycin]
Bliss interaction score [1]: -0.291
Bliss interaction score [2]: 0.119
Bliss interaction score [3]: 0.0721
Bliss interaction score [4]: -0.0772
